Where two headings read alike, the source gives them in different places.
Experiments:
[1] = Turbidometric solubility determination; assay type: physicochemical; conditions: PBS with 1% DMSO, aqueous buffer, kinetic from dmso stock, room temperature
Procedure, shortened: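 Precipitation was detected as a significant rise in absorbance at 620 nm over background, and this point set the maximum solubility. Compound was tested in PBS with 1% DMSO at final concentrations from 0 to 600 μM, in triplicate, after 2 h of shaking at room temperature.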

[2] = molecular target: formation of EETs and DiHETs (epoxygenase activity) in HLM; assay: Selectivity: inhibition of EETs and DiHETs formation (epoxygenase activity) in HLM; assay type: biochemical, human; conditions: for IC50: sum of EETs and DiHETs
Protocol: Selectivity of compounds for inhibition of 20-HETE formation vs inhibition of formation of 8,9-, 11,12-, 14,15-EET and 5,6-, 8,9-, 11,12-, 14,15-DiHETs was assessed via the simultaneous monitor of formation of 20-HETE and those metabolites under the UPLC-MS/MS assay conditions described above using HLM incubations and the same 12 test compound concentrations (0.1 nM-[…]) used for the IC50 determination experiments. At each of the 12 concentrations, the selectivity of 20-HETE inhibition over the other metabolites was compared. Epoxygenase activity was assessed by the sum of EETs and DiHETEs as percentage of control.

[3] = test system: MDR1 (P-gp); assay: BBB penetration potential, MDR1-MDCK permeability; assay type: in vitro ADME; conditions: dog; for Papp A→B at 120 min, 5 μM: apical to basolateral, pH 7.4, read-out: BBB penetration potential MDCK A-B 10−6 cm/s; for Papp B→A at 120 min, 5 μM: basolateral to apical, pH 7.4, read-out: BBB penetration potential MDCK B-A 10−6 cm/s
Protocol: BBB penetration potential assessment data in Table 1 was obtained as follows. MDR1-MDCK cell monolayers were grown to confluence on collagen-coated, microporous membranes in 12-well assay plates. Atenolol, propranolol and digoxin were used as control to assess plate quality. The permeability assay buffer was Hanks' balanced salt solution containing 10 mM HEPES and 15 mM glucose at a pH of 7.4. The buffer in the receiver chamber also contained 1% bovine serum albumin. The dosing solution concentration was 5 μM of test article in the assay buffer. Cell monolayers were dosed on the apical side (A-to-B) or basolateral side (B-to-A) and incubated at 37° C. with 5% CO2 in a humidified incubator. Samples were taken from the donor and receiver chambers at 120 minutes. Each determination was performed in duplicate the flux of lucifer yellow was also measured post-experimentally for each monolayer to ensure no damage was inflicted to the cell monolayers during the flux period. All samples were assayed by LC-MS/MS using electrospray ionization using a PE SCIEX API 4000 spectrometer and total run time of 1 min. Analytical method/conditions were: Liquid Chromatography Column: Waters ACQUITY UPLC BEH Phenyl 30×2.1 mm, 1.7 m; M.P. Buffer: 25 mM ammonium formate buffer, pH 3.5; Aqueous Reservoir (A): 90% water, 10% buffer; Organic Reservoir (B): 90% acetonitrile, 10% buffer; Flow Rate: 0.7 mL/minute; gradient program: 99% A (t=0 min), 1% A (t=0.65 min), 1% A (t=0.75 min), 99% A (t=0.8 min), 99% A (t=1 min); 5 μL injection volume
The apparent permeability (Papp) and percent recovery were calculated as follows: Papp=(dCr/dt)×Vr/(A×CA) (1) Percent Recovery=100×((Vr×Cr^final)+(Vd×Cd^final))/(Vd×CN) (2)
wherein: • dCr/dt is the slope of the cumulative concentration in the receiver compartment versus time in μMs^−1; • Vr is the volume of the receiver compartment in cm^3; • Vd is the volume of the donor compartment in cm^3; • A is the area of the insert (1.13 cm^2 for 12-well); • CA is the average of the nominal dosing concentration and the measured 120 minute donor concentration in μM; • CN is the nominal concentration of the dosing solution in μM; • Cr^final is the cumulative receiver concentration in μM at the end of the incubation period; • Cd^final is the concentration of the donor in μM at the end of the incubation period. Efflux ratio (ER) is defined as Papp (B-to-A)/Papp (A-to-B) Interpretation Brain Penetration Potential Classification: • Papp (A-to-B)≥3.0 and ER<3.0: High • Papp (A-to-B)≥3.0 and 10>ER≥3.0: Moderate • Papp (A-to-B)≥3.0 and ER≥10, or Papp (A-to-B)<3.0 Low

[4] = test system: 20-HETE formation (CYP4) in HLM; assay: IC50 determination, 20-HETE formation in HLM; assay type: biochemical, human; conditions: HLM 300 μg/ml, AA 100 μM, 12 concentrations
Procedure, shortened: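 Human or rat liver microsomes (300 μg/ml) with arachidonic acid 100 μM, NADPH 1 mM, compound at 12 concentrations (0.1 nM-50 μM) in phosphate/MgCl2 buffer, 20 min at 37 °C. 20-HETE quantified by UPLC-MS/MS against d6 internal standard, normalised to vehicle; IC50 by nonlinear regression.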

SMILES	solubility at 2 h ([1]; OD620, read-out: Max Solub) [µM]	IC50 [2] [µM]	Papp A→B at 120 min, 5 μM [3] [×10⁻⁶ cm/s]	Papp B→A at 120 min, 5 μM [3] [×10⁻⁶ cm/s]	IC50 [4] [µM]	solubility at 2 h ([1]; read-out: Solubility_ug/mL) [µg/mL]	EETs Inhibition, % @ 50,000 ([2]; at 50,000 (nM per column head))	EETs Inhibition, % @ 10 μM ([2]; at 10 μM) [% @ 10 μM]
O=C1CCCN1Cc1ccc(C2CCN(c3cn[nH]c3)CC2)cc1 [Compound 83, 1-(4-(1-(1H-Pyrazol-4-yl)piperidin-4-yl)benzyl)pyrrolidin-2-one]	> 600	> 0.05	5.16	41.6	0.0542			
c1ccc(CC2CCN(c3cn[nH]c3)CC2)cc1 [Compound 3, 4-Benzyl-1-(1H-pyrazol-4-yl)piperidine]	505	> 25	62	60	0.05	122		
c1ccc(C2CCN(c3cn[nH]c3)CC2)cc1 [Compound 1, 4-Phenyl-1-(1H-pyrazol-4-yl)piperidine]	121	> 10			0.19	28		
CC(=O)N(C)c1ccc(C2CCN(c3cn[nH]c3)CC2)cc1 [Compound 28, N-(4-(1-(1H-Pyrazol-4-yl)piperidin-4-yl)phenyl)-N-methylacetamide]	> 600		18.4	40.2	0.1	179		
COc1ccc(C2CCN(c3cn[nH]c3)CC2)cc1 [Compound 20, 4-(4-Methoxyphenyl)-1-(1H-pyrazol-4-yl)piperidine]	35		32	25.7	0.07	9	3.1%@ 50,000	
O=C1CCCN1c1ccc(C2CCN(c3cn[nH]c3)CC2)cc1 [Compound 100, 1-(4-(1-(1H-Pyrazol-4-yl)piperidin-4-yl)phenyl)pyrrolidin-2-one]	74	> 0.05	22.2	46.9	0.054			
c1ccc(C2CCN(c3ccn[nH]3)CC2)cc1 [Compound 54, 4-Phenyl-1-(1H-pyrazol-5-yl)piperidine]	> 600	> 50			0.44	137		
COc1ccc(C2CCN(c3ccn[nH]3)CC2)cc1 [Compound 19, 4-(4-Methoxyphenyl)-1-(1H-pyrazol-5-yl)piperidine]	106	> 25			0.14	27.3		
Clc1ccc(CC2CCN(c3cn[nH]c3)CC2)cc1 [Compound 93, 4-(4-Chlorobenzyl)-1-(1H-pyrazol-4-yl)piperidine]	117		44.3	40	0.017			50
Cc1cccc(C2CCN(c3cn[nH]c3)CC2)c1 [Compound 34, 1-(1H-Pyrazol-4-yl)-4-(m-tolyl)piperidine]	> 600		60.1	48.6	0.11	145		
